PubChem BioAssay AID256 (DTP/NCI, 2004)
Where “and” joins values, the source holds several entries; their conditions need not be identical. Equal values may be shown once. Inconclusive results and toxic doses are left out. How the source made its calls: active means survival T/C of 150% or more; inactive means T/C below 125% in these data.

Tested on: CD2F1 mice, L1210 leukemia ip, survival T/C
Assay: NCI In Vivo Anticancer Drug Screen. Data for tumor model L1210 Leukemia (intraperitoneal) in CD2F1 (CDF1) mice
Details: higher = longer survival
Summary of the method: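 Read-out first: treated-group measurement over vehicle-control measurement, expressed as a ratio. Animals bore a transplanted tumor line and were dosed with compound or vehicle.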

[1] = endpoint: mean survival time, dose: 100.0 mg/kg/injection, schedule: Q01DX001 (ip), vehicle: saline with Tween-80
[2] = endpoint: mean survival time, dose: 200.0 mg/kg/injection, schedule: Q01DX001 (ip), vehicle: saline with Tween-80
[3] = endpoint: mean survival time, dose: 400.0 mg/kg/injection, schedule: Q01DX001 (ip), vehicle: saline with Tween-80
[4] = endpoint: mean survival time, dose: 50.0 mg/kg/injection, schedule: Q01DX009 (ip), vehicle: saline with Tween-80
[5] = endpoint: mean survival time, dose: 100.0 mg/kg/injection, schedule: Q01DX009 (ip), vehicle: saline with Tween-80
[6] = endpoint: mean survival time, dose: 100.0 mg/kg/injection, schedule: Q04DX003 (ip), vehicle: saline with Tween-80
[7] = endpoint: mean survival time, dose: 200.0 mg/kg/injection, schedule: Q01DX009 (ip), vehicle: saline with Tween-80
[8] = endpoint: mean survival time, dose: 200.0 mg/kg/injection, schedule: Q04DX003 (ip), vehicle: saline with Tween-80
[9] = endpoint: mean survival time, dose: 400.0 mg/kg/injection, schedule: Q04DX003 (ip), vehicle: saline with Tween-80
[10] = endpoint: mean survival time, dose: 400.0 mg/kg/injection, schedule: Q01DX009 (ip), vehicle: saline with Tween-80
[11] = endpoint: mean survival time, dose: 100.0 mg/kg/injection, schedule: Q04DX002 (ip), vehicle: saline with Tween-80
[12] = endpoint: mean survival time, dose: 100.0 mg/kg/injection, schedule: Q01DX001 (ip), vehicle: saline
[13] = endpoint: mean survival time, dose: 200.0 mg/kg/injection, schedule: Q01DX001 (ip), vehicle: saline
[14] = endpoint: mean survival time, dose: 200.0 mg/kg/injection, schedule: Q04DX002 (ip), vehicle: saline with Tween-80
[15] = endpoint: mean survival time, dose: 400.0 mg/kg/injection, schedule: Q04DX002 (ip), vehicle: saline with Tween-80

Measured: T/C

O=C(Nc1ccc(Nc2ccncc2)cc1)c1ccc(Nc2ccnc3ccccc23)cc1[N+](=O)[O-]
inactive: [1] 98 % of control | [2] 96 % of control | [3] 95 % of control

CC(=O)CC(C)(C)N
inactive: [4] 94 % of control | [5] 97 % of control | [6] 97 % of control | [7] 92 % of control

N#CCCC(C#N)(CCC#N)C(N)=O
inactive: [6] 98 % of control | [8] 98 % of control | [9] 107 % of control

O=C1C(c2ccccc2)=C2C(=C1c1ccccc1)c1cccc3cccc2c13
inactive: [6] 92 % of control | [8] 90 % of control | [9] 92 % of control

O=[N+]([O-])c1ccc(C[N+]23CCN(CC2)CC3)cc1
inactive: [1] 100 % of control | [2] 106 % of control

CC(C)(C)C(=O)C(Br)S(=O)(=O)C(Br)(Br)C(=O)C(C)(C)C (stereo not given)
inactive: [5] 95 % of control | [7] 97 % of control | [10] 95 % of control

Nc1nc(N)c2nc3c4ccccc4c4ccccc4c3nc2n1
inactive: [1] 95 % of control | [5] 93 % of control | [2] 91 % of control | [3] 97 % of control

O=S(=O)([O-])O.O=S(O)S(=O)O.[Co+3].[NH2-].[NH2-].[NH2-].[NH2-].[NH2-]
inactive: [11] 97 % of control

CCN1CC2CCC(C(=O)O)(C2)C1=O (stereo not given)
inactive: [12] 98 % of control | [13] 106 % of control | endpoint: mean survival time, dose: 400.0 mg/kg/injection, schedule: Q01DX001 (ip), vehicle: saline 102 % of control

CCC1(OC(=O)CN2CCN(CCO)CC2)C(=O)OCc2c1cc1n(c2=O)Cc2cc3ccccc3nc2-1 (stereo not given)
active: endpoint: median survival time, dose: 100.0 mg/kg/injection, schedule: Q04DX002 (ip), vehicle: water 177 % of control
inactive: endpoint: median survival time, dose: 6.25 mg/kg/injection, schedule: Q04DX002 (ip), vehicle: water 105 % of control and 108 % of control | endpoint: median survival time, dose: 12.5 mg/kg/injection, schedule: Q04DX002 (ip), vehicle: water 108 % of control and 112 % of control | endpoint: median survival time, dose: 25.0 mg/kg/injection, schedule: Q04DX002 (ip), vehicle: water 122 % of control and 110 % of control

C/C=C/C(O)C1CCCCC1 (stereo not given)
inactive: [4] 103 % of control | [5] 98 % of control | [7] 107 % of control

O=C(O)C1=C(C(=O)O)C2C3CC4C(C13)C42
inactive: [6] 101 % of control | [8] 100 % of control | [9] 88 % of control

CCCCCCCCCCCCCCCC[n+]1ccccc1
inactive: endpoint: mean survival time, dose: 0.78 mg/kg/injection, schedule: Q01DX009 (ip), vehicle: saline 112 % of control | endpoint: mean survival time, dose: 1.56 mg/kg/injection, schedule: Q01DX009 (ip), vehicle: saline 120 % of control | endpoint: mean survival time, dose: 3.13 mg/kg/injection, schedule: Q01DX009 (ip), vehicle: saline 120 % of control

OC(c1ccccc1)(c1ccccc1)c1ccccc1Cl
inactive: [5] 98 % of control | [7] 101 % of control | [10] 102 % of control

Br/C1=C/CCCCCC1
inactive: endpoint: mean survival time, dose: 37.5 mg/kg/injection, schedule: Q01DX009 (ip), vehicle: saline 94 % of control | endpoint: mean survival time, dose: 75.0 mg/kg/injection, schedule: Q01DX009 (ip), vehicle: saline 94 % of control | endpoint: mean survival time, dose: 150.0 mg/kg/injection, schedule: Q01DX009 (ip), vehicle: saline 104 % of control

C/C=C\c1ccc(OCCOC(=O)Nc2cc(Cl)c(OC)cc2OC)c(OC)c1
inactive: [4] 90 % of control | [5] 90 % of control

CN(C)CCC(=O)/C=C\c1ccccc1
inactive: endpoint: mean survival time, dose: 100.0 mg/kg/injection, schedule: Q04DX003 (ip), vehicle: saline 89 % of control

CCN(CC)C1=C(Cl)C(=O)C(=O)c2cccnc21
inactive: endpoint: mean survival time, dose: 9.4 mg/kg/injection, schedule: Q01DX009 (ip), vehicle: saline 101 % of control

NCc1ccc(O)c(O)c1
inactive: endpoint: mean survival time, dose: 50.0 mg/kg/injection, schedule: Q01DX009 (ip), vehicle: saline 115 % of control | endpoint: mean survival time, dose: 100.0 mg/kg/injection, schedule: Q01DX009 (ip), vehicle: saline 118 % of control and 124 % of control | endpoint: mean survival time, dose: 200.0 mg/kg/injection, schedule: Q01DX009 (ip), vehicle: saline 123 % of control and 124 % of control | endpoint: mean survival time, dose: 400.0 mg/kg/injection, schedule: Q01DX009 (ip), vehicle: saline 114 % of control | endpoint: mean survival time, dose: 800.0 mg/kg/injection, schedule: Q01DX009 (ip), vehicle: saline 118 % of control | endpoint: median survival time, dose: 28.13 mg/kg/injection, schedule: Q03HX024 (ip), vehicle: saline 111 % of control | endpoint: median survival time, dose: 56.25 mg/kg/injection, schedule: Q03HX024 (ip), vehicle: saline 110 % of control | endpoint: median survival time, dose: 300.0 mg/kg/injection, schedule: Q03HX024 (ip), vehicle: saline 110 % of control

CCn1c(=O)c2c(nc(Cl)n2C2OC(COC(C)=O)C(OC(C)=O)C(OC(C)=O)C2NC(C)=O)n(CC)c1=O (stereo not given)
inactive: endpoint: mean survival time, dose: 12.5 mg/kg/injection, schedule: Q01DX005 (ip), vehicle: distilled water + Tween-80 98 % of control | endpoint: mean survival time, dose: 25.0 mg/kg/injection, schedule: Q01DX005 (ip), vehicle: distilled water + Tween-80 97 % of control | endpoint: mean survival time, dose: 50.0 mg/kg/injection, schedule: Q01DX005 (ip), vehicle: distilled water + Tween-80 97 % of control | endpoint: mean survival time, dose: 100.0 mg/kg/injection, schedule: Q01DX005 (ip), vehicle: distilled water + Tween-80 95 % of control | endpoint: mean survival time, dose: 200.0 mg/kg/injection, schedule: Q01DX005 (ip), vehicle: distilled water + Tween-80 97 % of control

COCC(=O)c1ccccc1
inactive: [5] 96 % of control | [7] 96 % of control | [10] 94 % of control

COc1ccc(NC(=O)Oc2ccc3ccccc3c2)cc1
inactive: [11] 87 % of control | [14] 93 % of control | [15] 93 % of control

CC(C)(C)C1CCC(S(=O)c2ccccc2)CC1 (stereo not given)
inactive: [1] 105 % of control | [11] 90 % of control | [2] 100 % of control | [14] 93 % of control | [3] 103 % of control | [15] 93 % of control

CC(C)C/C=N/NC(=O)c1ccc[n+](C)c1
inactive: endpoint: mean survival time, dose: 50.0 mg/kg/injection, schedule: Q01DX001 (ip), vehicle: saline 107 % of control | [12] 109 % of control | [13] 103 % of control

Nc1nc(=O)n(CCCOc2cccc(Cl)c2)cc1-c1ccc(Cl)c(Cl)c1
inactive: [1] 96 % of control | [2] 89 % of control | [3] 91 % of control
